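Values below derive from 48-hour exposures of cells grown in 96-well plates, with endpoints linearly interpolated between the two concentrations bracketing the appropriate inhibition level. GI50 marks 50% less growth. TGI denotes the concentration required for complete inhibition of growth.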

Holding throughout (assay): growth of human tumour cells (NCI), 48 h
Test [1] deals with SF-295 CNS.
Test [2] concerns UACC-62 melanoma.
Test [3] deals with EKVX NSCLC.
For test [4], the system named is CAKI-1 renal.
The subject of test [5] is SK-MEL-5 melanoma.
In test [6] the test system is OVCAR-3 ovarian.
For test [7], the system named is LOX IMVI melanoma.
In test [8] the test system is MOLT-4 leukemia.
For test [9], the system named is M14 melanoma.
In test [10] the test system is MDA-MB-435.

For the molecule `C[C@@]12CCC[C@@](C)(C(=O)O)C1CC[C@]13C[C@@](O)(CO)[C@](O)(CCC12)C3` (stereo partly drawn), the GI50 in test [1], in test [2], in test [3], in test [4], in [5] and in test [6] was above 100 µM throughout. Besides, the GI50 in test [7], in [8], in test [9] and in test [10] was above 100 µM each time. The TGI in test [1], in test [2], in [3], in [4], in test [5] and in [6] was above 100 µM in each case. For the same molecule, the TGI in test [7], in [8], in test [9] and in test [10] was above 100 µM in each case.
`C=CC(=O)Nc1cc(C)ccc1Nc1nc(Nc2cc(OC)ncc2C)ncc1C(F)(F)F`: the GI50 in test [1] was 2.84 µM; in test [2], 0.0725 µM; in test [3], 0.438 µM; in [4], 0.514 µM; in test [5], 1.77 µM; in [6] it was 1.4 µM. The GI50 was 0.142 µM in test [7], 3.55 µM in [8], 0.0668 µM in [9] and 0.308 µM in test [10]. For the same molecule, the TGI in [1] is above 100 µM; in [2], 0.71 µM; in [3], 3.1 µM; in [4] it was 1.84 µM; in test [5] it was 5.42 µM; in test [6], above 100 µM. Also, the TGI in [7] was 1.03 µM; in test [8] it was above 100 µM; in test [9], 0.686 µM; in test [10] it was 3.85 µM.
As for `CC(=O)c1c(C)[nH]c(-c2nc3ccc(N4CCN(C)CC4)cc3[nH]2)c1-c1ccc(N(C)C)cc1`, the GI50 in test [1] was 1.55 µM; in [2], 0.175 µM; in test [3], 4.81 µM; in test [4], 0.309 µM; in test [5], 1.19 µM; in test [6], 1.17 µM. For the same molecule, the GI50 was 0.359 µM in [7], 1.5 µM in test [8], 0.537 µM in test [9] and 0.554 µM in test [10]. The TGI was 14.8 µM in test [1]; 13 µM in test [2]; above 100 µM in test [3]; 13.9 µM in [4]; 4.59 µM in test [5]; 17 µM in test [6]. For the same molecule, the TGI amounted to 1.85 µM in test [7], 45.2 µM in [8], 13.4 µM in [9] and 13.7 µM in test [10].
On to `COc1cc(N(C)C)c(OC)cc1/C=C\c1ccnc2ccccc12`, for which the TGI in test [1] is above 10 µM; in [2] it was above 10 µM; in test [3], above 10 µM; in test [4], above 10 µM; in test [5], 3.13 µM; in test [6], above 10 µM. In addition, the TGI in [7] is above 10 µM; in test [8], 8.06 µM; in [9], above 10 µM; in [10], 4.26 µM.
Consider `CCN(CC)CCCNCc1cc(-c2ccccc2)nc2ccccc12`, for which the GI50 was 16.5 µM in test [1]; 2.55 µM in test [2]; 89.2 µM in [3]; 19.5 µM in [4]; 5.49 µM in test [5]; 4.13 µM in test [6]. Moreover, the GI50 is 2.32 µM in [7], 0.751 µM in test [8], 4.63 µM in [9] and 4.47 µM in test [10]. Besides, the TGI in test [1] was 44.7 µM; in test [2] it was 8.37 µM; in [3], above 100 µM; in [4], above 100 µM; in test [5], 18.7 µM; in [6] it was above 100 µM. The TGI is 11.4 µM in [7], above 100 µM in test [8], 14.4 µM in [9] and 24.3 µM in test [10].
As for `NCC1OC(n2cnc3c(N)ncnc32)CC1O` (stereo not drawn), the TGI in [1], in [2], in test [3], in test [4], in [5] and in test [6] was above 100 µM throughout. Besides, the TGI in [7], in [8], in [9] and in [10] was above 100 µM each time.
As to `CNC(=O)c1ccccc1Nc1nc(Nc2cc(OC)c(OC)c(OC)c2)ncc1Br`, the GI50 in [1] was 0.0282 µM; in test [2], 0.0255 µM; in test [3], 0.0308 µM; in test [4], 0.0155 µM; in [5], 0.054 µM; in [6], 0.0695 µM. Moreover, the GI50 in test [7] was 0.0183 µM; in test [8], 0.0501 µM; in [9] it was 0.0191 µM; in test [10] it was 0.0546 µM. Besides, the TGI in test [1] amounted to 0.868 µM; in test [2] it was 1.64 µM; in test [3], 1.01 µM; in test [4], 0.275 µM; in test [5], 1.18 µM; in [6], 25 µM. For the same molecule, the TGI in test [7] worked out at 0.0917 µM; in [8], 5.75 µM; in [9], 1.38 µM; in test [10], 2.11 µM.
Consider `Cn1c2c(c3ccc([N+](=O)[O-])cc3c1=O)C(=O)c1ccccc1-2`, for which the GI50 is 22.7 µM in test [1]; above 100 µM in test [2]; above 100 µM in test [3]; 80.5 µM in test [4]; above 100 µM in test [5]; 52.6 µM in test [6]. For the same molecule, the GI50 in test [7] is above 100 µM; in [8] it was above 100 µM; in test [10], 47.4 µM. For the same molecule, the TGI in test [1], in test [2], in [3], in test [4], in test [5] and in test [6] was above 100 µM each time. In addition, the TGI in test [7], in test [8] and in test [10] was above 100 µM each time.

The values above are taken from PubChem BioAssay (NCI).
